US4472433A, “Phenoxyphenyl acetic acids and their medicinal use” (Fujisawa Pharmaceutical Co., Ltd., priority 1978, dated 1984)

What was measured:
erythema = test: UV-induced erythema test (number of rats estimated as effective); assay type: in vivo, male Hartley rats; details: oral, ten rats per group, half 1 h before and half just after UV radiation, scored 2 h later
Protocol: Ten male 5 week old Hartley rats, each weighing about 350 g. were used per group. The backs of each animal were depilated 24 hours before the test. An adhesive tape with 3 small holes of 9 mm. diameter was placed on the depilated skin and then the animal was exposed to ultra-violet radiation from an ultra-violet lamp (500 W, manufactured by Engelhard Hanovia Inc.) at a distance of 13 cm. for 80 seconds. Two hours later, the degree of erythema was estimated on the basis of the following scores:
1.0: erythema with clear border,
0.5: erythema with unclear border,
The drugs were regarded as being effective when the total of 3 points was below 1.5.
Each dosage of the test compound was administered orally in a suspension form in 20 ml. of 0.5% methyl cellosolve aqueous solution. Half of the test sample was administered one hour before the radiation and the remaining half of the test solution was administered just after radiation.

[1] = test system: contraction induced by arachidonic acid; test: Arachidonic acid-induced contraction of isolated stomach fundus strip; design: species or system Sprague-Dawley rats; details: rat stomach fundus strip, arachidonic acid 1.0×10^-5 g/ml as spasmogen, compound added 15 minutes before
Protocol: The stomach was removed from Sprague-Dawley rats, weighing about 180 g., after the animals were fasted overnight. A strip of stomach fundus was suspended under initial tension of 0.6 g. in a 10 ml. organ bath containing Tyrode solution. Arachidonic acid (1.0×10^-5 g/ml.) was employed as the spasmogen. Several doses of the test compound were added to the individual bath fluid 15 minutes before the addition of arachidonic acid. The value of contraction induced by arachidonic acid was measured and plotted dose-activity curve. ED50 value of each test compound was obtained by interpolation from the dose-activity curve.

writhing syndrome = test: Acetic acid-induced writhing syndrome; assay type: in vivo, male ddy strain mice; details: oral
Protocol: Male ddy strain mice, weighing 24.0-32.0 g, were used. Each dose group consisted of 10 animals. Writhing syndrome was produced by an intraperitoneal injection of 20 ml/kg of 0.6% acetic acid. […] The drug were given orally 60 minutes before acetic acid. The frequency of writhing syndrome for 10 minutes in the treated animals was compared with that in the control. Control animals received the vehicle.
The test substances, the compound obtained in the Example 5-(2) was suspended in 0.5% methylcellulose.
ED50 value was calculated according to the Litchfield-Wilcoxon's method with a computer program.

[2] = test system: Brewer's yeast-induced hyperthermia; test: Brewer's yeast-induced hyperthermia (antipyretic effect); assay type: in vivo, male SD strain rats; details: oral; for ED50: Rattus norvegicus
Protocol: (§1) Male SD strain rats aged 6 weeks, weighing 164-235 g, were divided into 4 groups i.e. A, B, A' and B' of 10 animals each and were treated as shown below:
(§2) Group A saline 0.5% methylcellulose
(§3) Group B 5% Brewer's yeast
(§4) Group A' saline Test substance
(§5) Group B' 5% Brewer's yeast
(§6) The test substance or 0.5%MC were given orally to rats 4 hr after subcutaneous injection of 5% Brewer's yeast or saline. The rectal temperature was measured with a thermister probe inserted about 4.5-5.0 cm into the rectum 4 hr before, and 1 and 2 hr after the injection of test substance.
The antipyretic effect (%) of test substance on the Brewer's yeast-induced hyperthermia at 1 and 2 hr after the injection of test substance was calculated from the mean rectal temperature (rectal temp.) in each group by the following formula: [formula]
(§7) All experiments were performed at an ambient temperature of 22.0°-22.5° C.
(§8) Test substance, the compound obtained in the Example 5-(2) was dissolved in 0.5%MC at a dose of 10 mg/kg and 100 mg/kg, and also suspended in 0.5%MC at a dose of 320 mg/kg, and Brewer's yeast was suspended in saline.
(§9) Statistics: Calculation of ED50 value according to the Litchfield-Wilcoxon's method was performed with a computer program. Statistic analysis of difference between the control and treated groups according to the Student's t-test or Cochran-Cox test was performed with a computer program.

[3] = Rectal temperature in saline-treated rats; assay type: in vivo, male SD strain rats
Protocol: as §1, §2, §3, §4, §5, §6, §7, §8, §9

| Structure (SMILES) | Number of rats estimated as effective (erythema; 2 mg/kg) [rats] | Number of rats estimated as effective (erythema; 10 mg/kg) [rats] | ED50 [1] [µg/mL] | further results |
| --- | --- | --- | --- | --- |
| Nc1c(CC(=O)[O-])cccc1Oc1ccccc1F.[Na+] [Example 2 - (2), sodium 2-[2-amino-3-(2-fluorophenoxy)phenyl]acetate] | 9 | 10 | 1.6 | – |
| Nc1c(CC(=O)[O-])cccc1Oc1cccc(Cl)c1.[Na+] [Example 4 - (2), sodium 2-[2-amino-3-(3-chlorophenoxy)phenyl]acetate] | – | – | 1.7 | – |
| Nc1c(CC(=O)[O-])cccc1Oc1ccccc1Cl.[Na+] [Example 5 - (2), sodium 2-[2-amino-3-(2-chlorophenoxy)phenyl]acetate] | 8 | 10 | 1.3 | ED50 (writhing syndrome; Mus musculus, 60 minutes before acetic acid, writhing 3 to 13 minutes after acetic acid, read-out: ED50 value (inhibition of writhing)): 19.6 mg/kg; effect on the writhing syndrome caused by acetic acid (writhing syndrome): dose-related inhibiting effects on the writhing syndrome; ED50 ([2]; 1 hr after administration): 37.3 mg/kg; ED50 ([2]; 2 hr after administration): 12.8 mg/kg; antipyretic effect on the Brewer's yeast-induced hyperthermia ([2]; all doses (10, 100, 320 mg/kg), 1 and 2 hr after administration): showed the antipyretic effect on the Brewer's yeast-induced hyperthermia; rectal temperature change ([3]; 10 mg/kg, 1 hr, slight but significant): produced a rise; rectal temperature change ([3]; 100 mg/kg, 2 hr): significant fall of the rectal temperature; rectal temperature change ([3]; 320 mg/kg, 1 hr, slight but significant): produced a fall of the rectal temperature; rectal temperature change ([3]; 320 mg/kg, 2 hr): significant fall of the rectal temperature |
| Nc1c(CC(=O)[O-])cccc1Oc1cc(Cl)cc(Cl)c1.[Na+] [Example 7 - (2), sodium 2-[2-amino-3-(3,5-dichlorophenoxy)phenyl]acetate] | – | – | 0.16 | – |
| Cc1ccccc1Oc1cccc(CC(=O)[O-])c1N.[Na+] [Example 10 - (2), sodium 2-[2-amino-3-(o-tolyloxy)phenyl]acetate] | 5 | 10 | 2.5 | – |
| Nc1c(CC(=O)[O-])cccc1Oc1c(Cl)cccc1Cl.[Na+] [Example 19, sodium 2-[2-amino-3-(2,6-dichlorophenoxy)phenyl]acetate] | – | – | 2.4 | – |
